Results as given in patent US6737383B1, “Herbicidal oxadiazolidines” (priority 1999, dated 2004).

Tests used:
cocklebur = assay: Test B pre/postemergence cocklebur; assay type: in vivo, Xanthium strumarium
How it was run: (§1)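 Response is a visual 0-to-10 score relative to untreated plants, where 0 means no effect and 10 means complete control, taken twelve to sixteen days after application. Treatments went onto soil at planting and onto foliage of 1- to 4-leaf plants, using a surfactant-containing non-phytotoxic solvent.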

purple nutsedge = assay: Test B pre/postemergence purple nutsedge; assay type: in vivo, Cyperus rotundus
How it was run: as §1

smallflower flatsedge = assay: Test B flood test smallflower flatsedge; assay type: in vivo, Cyperus difformis
How it was run: (§2)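 Read-out is a visual response score from 0 (no effect) to 10 (complete control), assigned by comparison with untreated controls. Treatment was applied at the 2-leaf stage, and plants stayed in the greenhouse for twelve to sixteen days before scoring.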

surinam grass = assay: Test B pre/postemergence surinam grass; assay type: in vivo, Brachiaria decumbens
How it was run: as §1

bamyardgrass = assay: Test B flood test barnyardgrass; assay type: in vivo, Echinochloa crus-galli
How it was run: as §2

sugar beet = assay: Test B pre/postemergence sugar beet; assay type: in vivo, Beta vulgaris
How it was run: as §1

duck salad = assay: Test B flood test duck salad; assay type: in vivo, Heteranthera limosa
How it was run: as §2

rice = assay: Test B flood test rice; assay type: in vivo, Oryza sativa
How it was run: as §2

soybean = assay: Test B pre/postemergence soybean; assay type: in vivo, Glycine max
How it was run: as §1

crabgrass = assay: Test B pre/postemergence crabgrass; assay type: in vivo, Digitaria sanguinalis
How it was run: as §1

corn = assay: Test B pre/postemergence corn; assay type: in vivo, Zea mays
How it was run: as §1

wild oat = assay: Test B pre/postemergence wild oat; assay type: in vivo, Avena fatua
How it was run: as §1

rape = assay: Test B pre/postemergence rape; assay type: in vivo, Brassica napus
How it was run: as §1

pigweed = assay: Test B pre/postemergence pigweed; assay type: in vivo, Amaranthus retroflexus
How it was run: as §1

giant foxtail = assay: Test B pre/postemergence giant foxtail; assay type: in vivo, Setaria faberii
How it was run: as §1

morningglory = assay: Test B pre/postemergence morningglory; assay type: in vivo, Ipomoea hederacea
How it was run: as §1

[1] = Postemergence, Rate 62 g/ha, scale 0 to 10, 0 is no effect, 10 is complete control
[2] = Postemergence, Rate 250 g/ha, scale 0 to 10, 0 no effect, 10 complete control
[3] = Preemergence, Rate 62 g/ha, scale 0 to 10 (0 no effect, 10 complete control)
[4] = Preemergence, Rate 125 g/ha, scale 0 to 10 (0 no effect, 10 complete control)
[5] = Preemergence, Rate 250 g/ha, scale of 0 to 10 where 0 is no effect and 10 is complete control
[6] = Preemergence, Rate 500 g/ha, scale 0 (no effect) to 10 (complete control)
[7] = Rate 125 g/ha, Postemergence, scale 0 to 10, 0 no effect, 10 complete control
[8] = Rate 500 g/ha, Postemergence, scale 0 to 10, 0 no effect, 10 complete control
[9] = Rate 62 g/ha, headed Pre-emergence (flood test species), scale 0 to 10 (0 no effect, 10 complete control)
[10] = Rate 125 g/ha, Pre-emergence, flood test species, scale 0 to 10 where 0 is no effect and 10 is complete control
[11] = Rate 250 g/ha, headed Pre-emergence (flood test species), scale 0 to 10 (0 no effect, 10 complete control)
[12] = Rate 500 g/ha, headed Pre-emergence (flood test species), scale 0 to 10 (0 no effect, 10 complete control)

CCN(Cc1ccccc1)C(=O)n1oc(=O)n(-c2ccccc2C)c1=O [Compound 71]
0: Cocklebur plant response rating (cocklebur; [1]) | Cocklebur plant response rating (cocklebur; [2]) | Cocklebur plant response rating (cocklebur; [3]) | Plant response rating, Cocklebur (cocklebur; [4]) | Plant response rating, Cocklebur (cocklebur; [5]) | Cocklebur plant response rating (cocklebur; [6]) | Cocklebur plant response rating (cocklebur; [7]) | Cocklebur plant response rating (cocklebur; [8]) | Nutsedge plant response rating (purple nutsedge; [1]) | Nutsedge plant response rating (purple nutsedge; [2]) | Nutsedge plant response rating (purple nutsedge; [3]) | Plant response rating, Nutsedge (purple nutsedge; [4]) | Plant response rating, Nutsedge (purple nutsedge; [5]) | Nutsedge plant response rating (purple nutsedge; [6]) | Nutsedge plant response rating (purple nutsedge; [7]) | Nutsedge plant response rating (purple nutsedge; [8]) | S. Flatsedge plant response rating (smallflower flatsedge; [9]) | S. Flatsedge plant response rating (smallflower flatsedge; [10]) | S. Flatsedge plant response rating (smallflower flatsedge; [11]) | Plant response rating, S. Flatsedge (smallflower flatsedge; [12]) | B. signalgrass plant response rating (surinam grass; [1]) | B. signalgrass plant response rating (surinam grass; [2]) | B. signalgrass plant response rating (surinam grass; [3]) | Plant response rating, B. signalgrass (surinam grass; [4]) | Plant response rating, B. signalgrass (surinam grass; [5]) | B. signalgrass plant response rating (surinam grass; [6]) | B. signalgrass plant response rating (surinam grass; [7]) | B. signalgrass plant response rating (surinam grass; Rate 500 g/ha, Postemergence, scale of 0 to 10 where 0 is no effect and 10 is complete control) | Barnyardgrass plant response rating (bamyardgrass; [9]) | Barnyardgrass plant response rating (bamyardgrass; [10]) | Barnyardgrass plant response rating (bamyardgrass; [11]) | Plant response rating, Barnyardgrass (bamyardgrass; [12]) | Sugarbeets plant response rating (sugar beet; [1]) | Sugarbeets plant response rating (sugar beet; [2]) | Sugarbeets plant response rating (sugar beet; [3]) | Plant response rating, Sugarbeets (sugar beet; [4]) | Plant response rating, Sugarbeets (sugar beet; [5]) | Sugarbeets plant response rating (sugar beet; [6]) | Sugarbeets plant response rating (sugar beet; [7]) | Sugarbeets plant response rating (sugar beet; [8]) | Ducksalad plant response rating (duck salad; [9]) | Ducksalad plant response rating (duck salad; [10]) | Ducksalad plant response rating (duck salad; [11]) | Plant response rating, Ducksalad (duck salad; [12]) | Rice plant response rating (rice; [9]) | Rice plant response rating (rice; [10]) | Rice plant response rating (rice; [11]) | Plant response rating, Rice (rice; [12]) | Soybean plant response rating (soybean; [1]) | Soybean plant response rating (soybean; [2]) | Soybean plant response rating (soybean; [3]) | Plant response rating, Soybean (soybean; [4]) | Plant response rating, Soybean (soybean; [5]) | Soybean plant response rating (soybean; [6]) | Soybean plant response rating (soybean; [7]) | Soybean plant response rating (soybean; [8]) | Crabgrass plant response rating (crabgrass; [1]) | Crabgrass plant response rating (crabgrass; [2]) | Crabgrass plant response rating (crabgrass; [3]) | Plant response rating, Crabgrass (crabgrass; [4]) | Plant response rating, Crabgrass (crabgrass; [5]) | Crabgrass plant response rating (crabgrass; [6]) | Crabgrass plant response rating (crabgrass; [7]) | Crabgrass plant response rating (crabgrass; [8]) | Corn plant response rating (corn; [1]) | Corn plant response rating (corn; [2]) | Corn plant response rating (corn; [3]) | Plant response rating, Corn (corn; [4]) | Plant response rating, Corn (corn; [5]) | Corn plant response rating (corn; [6]) | Corn plant response rating (corn; [7]) | Corn plant response rating (corn; [8]) | Wild oats plant response rating (wild oat; [1]) | Wild oats plant response rating (wild oat; [2]) | Wild oats plant response rating (wild oat; [3]) | Plant response rating, Wild oats (wild oat; [4]) | Plant response rating, Wild oats (wild oat; [5]) | Wild oats plant response rating (wild oat; [6]) | Wild oats plant response rating (wild oat; [7]) | Wild oats plant response rating (wild oat; [8]) | Rape plant response rating (rape; [1]) | Rape plant response rating (rape; [2]) | Rape plant response rating (rape; [3]) | Plant response rating, Rape (rape; [4]) | Plant response rating, Rape (rape; [5]) | Rape plant response rating (rape; [6]) | Rape plant response rating (rape; [7]) | Rape plant response rating (rape; [8]) | Redroot pigweed plant response rating (pigweed; [1]) | Redroot pigweed plant response rating (pigweed; [2]) | Redroot pigweed plant response rating (pigweed; [3]) | Plant response rating, Redroot pigweed (pigweed; [4]) | Plant response rating, Redroot pigweed (pigweed; [5]) | Redroot pigweed plant response rating (pigweed; [6]) | Redroot pigweed plant response rating (pigweed; [7]) | Redroot pigweed plant response rating (pigweed; [8]) | Giant foxtail plant response rating (giant foxtail; [1]) | Giant foxtail plant response rating (giant foxtail; [2]) | Giant foxtail plant response rating (giant foxtail; [3]) | Plant response rating, Giant foxtail (giant foxtail; [4]) | Plant response rating, Giant foxtail (giant foxtail; [5]) | Giant foxtail plant response rating (giant foxtail; [6]) | Giant foxtail plant response rating (giant foxtail; [7]) | Giant foxtail plant response rating (giant foxtail; [8]) | Morningglory plant response rating (morningglory; [1]) | Morningglory plant response rating (morningglory; [2]) | Morningglory plant response rating (morningglory; [3]) | Plant response rating, Morningglory (morningglory; [4]) | Plant response rating, Morningglory (morningglory; [5]) | Morningglory plant response rating (morningglory; [6]) | Morningglory plant response rating (morningglory; [7]) | Morningglory plant response rating (morningglory; [8])
